The source made the active and inactive calls. For most assays here, no stated cut-off is given here; in the data, actives have a measured EC50 and inactives only a lower limit.
Experiments:
[1] = Luminescence Cell-Based Dose Retest to Confirm Inhibitors of Cancer Stem Cells. [Related pubchem assays (depositor defined):AID2717, AID2721]; type: functional; details: Homo sapiens
[2] = inhibitors of firefly luciferase expression or activity, dose response, H4 neuroglioma cells, luminescence (AID 1990); type: functional, cell-based
[3] = inhibitors of SNCA 5'UTR-driven reporter translation, confirmation, H4 neuroglioma cells, luminescence (AID 1988); type: functional, cell-based
[4] = Luminescence Cell-Based Dose Response HTS to Identify Inhibitors of 5'UTR Stem-Loop Driven Prion Protein mRNA Translation in H4 Neuroglioblastoma Cells. [Related pubchem assays: 1827 (Project Summary), 1813 (Primary HTS)]; type: functional
Cytochrome P450 3A4 = Cytochrome P450 3A4 (Homo sapiens, UniProt P08684); details: Potency;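 further: confirmatory qHTS run detecting inhibitors and substrates of CYP3A4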
BJ [5] = test: cytotoxicity toward BJ-TERT-LT-ST fibroblasts, dose response, cell-based, RAS-independent, luminescence (AID 1935); type: functional; details: Homo sapiens;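 further: BJ fibroblasts immortalized with TERT plus LT and ST oncogenes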
[6] = HEp-2 cell cytotoxicity, dose response, cytotoxicity control for RSV inhibitor project, HTS (AID 2410); type: functional; details: human respiratory syncytial virus
[7] = cytotoxicity toward DRD oncogenic fibroblasts, dose response, cell-based, non-viral oncogenic, luminescence (AID 1934); type: functional; details: Homo sapiens
BJ [8] = test: cells; type: functional, cell-based; details: Homo sapiens
[9] = biological target: T1, Replicative DNA helicase DnaB (Mycobacterium tuberculosis, UniProt P9WMR3); test: DnaB intein splicing inhibitors, dose response, biochemical, cell-free fluorescence (AID 449749); type: functional
T1 sequence (P9WMR3 whole entry): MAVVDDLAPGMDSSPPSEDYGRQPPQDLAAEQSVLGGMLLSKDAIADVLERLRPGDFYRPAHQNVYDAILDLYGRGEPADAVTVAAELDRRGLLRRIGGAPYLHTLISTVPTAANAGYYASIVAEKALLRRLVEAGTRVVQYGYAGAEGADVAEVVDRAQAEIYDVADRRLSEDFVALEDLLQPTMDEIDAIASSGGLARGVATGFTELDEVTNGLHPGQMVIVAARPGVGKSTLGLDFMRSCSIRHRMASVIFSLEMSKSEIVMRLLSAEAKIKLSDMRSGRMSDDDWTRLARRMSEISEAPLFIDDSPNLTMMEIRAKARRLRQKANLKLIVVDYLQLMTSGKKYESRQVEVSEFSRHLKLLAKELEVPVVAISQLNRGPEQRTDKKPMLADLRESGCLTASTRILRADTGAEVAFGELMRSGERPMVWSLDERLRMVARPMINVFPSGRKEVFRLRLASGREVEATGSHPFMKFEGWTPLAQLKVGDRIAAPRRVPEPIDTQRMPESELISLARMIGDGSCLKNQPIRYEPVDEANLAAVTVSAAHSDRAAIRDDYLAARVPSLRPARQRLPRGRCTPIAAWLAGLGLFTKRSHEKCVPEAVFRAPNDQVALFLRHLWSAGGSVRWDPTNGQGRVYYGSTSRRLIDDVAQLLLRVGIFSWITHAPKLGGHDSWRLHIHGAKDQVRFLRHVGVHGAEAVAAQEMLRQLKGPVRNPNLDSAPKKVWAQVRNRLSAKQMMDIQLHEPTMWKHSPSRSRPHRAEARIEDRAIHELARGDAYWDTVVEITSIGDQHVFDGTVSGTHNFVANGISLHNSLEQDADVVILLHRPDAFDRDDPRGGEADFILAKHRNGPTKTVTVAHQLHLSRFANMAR

BJ [10] = test: cytotoxicity toward BJ-TERT fibroblasts, dose response, cell-based, RAS-independent, luminescence (AID 1933); type: functional; details: Homo sapiens
Protein RecA = biological target: T2, Protein RecA (Mycobacterium tuberculosis, UniProt P9WHJ3); test: Fluorescence Cell-Free Homogeneous Dose Retest to Identify Inhibitors of RecA-Intein Splicing Activity. [Related pubchem assays (depositor defined):AID2097, AID2223, AID489010, AID492950]; type: functional
T2 sequence (P9WHJ3 whole entry): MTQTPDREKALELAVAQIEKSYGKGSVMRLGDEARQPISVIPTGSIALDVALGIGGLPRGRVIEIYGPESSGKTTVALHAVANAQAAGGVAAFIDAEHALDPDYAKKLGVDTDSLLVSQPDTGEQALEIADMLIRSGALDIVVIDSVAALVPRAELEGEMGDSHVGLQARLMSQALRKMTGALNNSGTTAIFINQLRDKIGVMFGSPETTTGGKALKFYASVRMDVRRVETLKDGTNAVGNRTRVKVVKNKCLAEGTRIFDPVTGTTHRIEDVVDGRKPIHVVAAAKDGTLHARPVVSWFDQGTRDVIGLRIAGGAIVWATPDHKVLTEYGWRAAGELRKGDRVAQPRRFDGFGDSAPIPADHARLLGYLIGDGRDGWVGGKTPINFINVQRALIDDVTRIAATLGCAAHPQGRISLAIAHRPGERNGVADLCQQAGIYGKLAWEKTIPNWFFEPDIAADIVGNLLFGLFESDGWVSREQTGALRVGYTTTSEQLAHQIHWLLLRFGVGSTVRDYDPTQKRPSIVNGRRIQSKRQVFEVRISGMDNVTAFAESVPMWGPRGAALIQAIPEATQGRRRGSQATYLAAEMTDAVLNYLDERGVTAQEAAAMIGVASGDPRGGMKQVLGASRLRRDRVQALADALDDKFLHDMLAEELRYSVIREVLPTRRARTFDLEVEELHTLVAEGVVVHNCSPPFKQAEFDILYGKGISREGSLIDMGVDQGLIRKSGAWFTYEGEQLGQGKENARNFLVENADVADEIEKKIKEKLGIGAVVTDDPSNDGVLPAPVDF

[11] = Luminescence Cell-Based Dose Confirmation HTS to Identify Inhibitors of Platelet Dense Granule Release. [Related pubchem assays: 1663 (Primary HTS), 1678 (Summary of Project)]; type: functional
[12] = biological target: Luciferin 4-monooxygenase (Photinus pyralis, UniProt P08659); test: firefly luciferase enzyme inhibitors, dose response, biochemical, luminescence (AID 1891)
SN12K1 = test: cells; type: functional; details: Homo sapiens
P388/ADR = test: cells; type: functional; details: Mus musculus
P388 = test: cells; type: functional; details: Mus musculus

Chain of Cytochrome P450 3A4 (P08684 whole entry): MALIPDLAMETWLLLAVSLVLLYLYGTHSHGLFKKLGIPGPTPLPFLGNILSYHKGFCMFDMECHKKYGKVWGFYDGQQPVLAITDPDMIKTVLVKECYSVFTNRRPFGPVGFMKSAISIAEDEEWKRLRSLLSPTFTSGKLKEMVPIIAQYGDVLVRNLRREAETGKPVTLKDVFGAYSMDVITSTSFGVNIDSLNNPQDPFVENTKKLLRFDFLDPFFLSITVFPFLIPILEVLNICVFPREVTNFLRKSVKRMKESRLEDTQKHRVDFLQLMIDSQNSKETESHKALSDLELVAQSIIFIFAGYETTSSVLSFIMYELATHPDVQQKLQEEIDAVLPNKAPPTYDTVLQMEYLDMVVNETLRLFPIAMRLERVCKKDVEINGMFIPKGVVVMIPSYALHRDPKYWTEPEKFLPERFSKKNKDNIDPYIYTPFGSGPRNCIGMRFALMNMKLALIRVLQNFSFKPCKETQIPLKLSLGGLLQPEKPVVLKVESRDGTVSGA
Chain of Luciferin 4-monooxygenase (P08659 whole entry): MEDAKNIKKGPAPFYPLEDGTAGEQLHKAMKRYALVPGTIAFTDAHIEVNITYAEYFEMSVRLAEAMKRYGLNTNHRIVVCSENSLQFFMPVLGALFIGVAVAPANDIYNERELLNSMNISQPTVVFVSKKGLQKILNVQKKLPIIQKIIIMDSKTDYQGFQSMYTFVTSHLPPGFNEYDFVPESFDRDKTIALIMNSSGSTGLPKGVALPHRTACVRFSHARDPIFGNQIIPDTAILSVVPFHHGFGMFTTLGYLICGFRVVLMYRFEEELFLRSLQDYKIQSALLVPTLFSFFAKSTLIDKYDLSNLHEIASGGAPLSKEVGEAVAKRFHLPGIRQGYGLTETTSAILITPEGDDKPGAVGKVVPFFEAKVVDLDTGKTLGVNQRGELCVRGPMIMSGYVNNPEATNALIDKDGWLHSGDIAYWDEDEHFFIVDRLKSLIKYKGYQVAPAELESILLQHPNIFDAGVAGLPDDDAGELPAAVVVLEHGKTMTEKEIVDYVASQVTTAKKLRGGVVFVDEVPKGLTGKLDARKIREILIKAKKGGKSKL

## O=C(/C=C/c1c[nH]c2ccccc12)c1cccc2ccccc12
[1]
  AC50: 2.92 µM (active)

## CC(C)(C)c1cc(CSC(S)=NC2CCS(=O)(=O)C2)c(Br)c(C(C)(C)C)c1 (configuration not stated)
[1]
  AC50: 3.19 µM (active)

## CC(C)(C)c1ccc(OCCON2C(=O)CCC2=O)c(Cl)c1
[2]
  EC50: > 120 µM (not active)
[3]
  EC50: 18.3 µM (active)
[4]
  EC50: 13.6 µM (active)

## Cn1c(N)c(C(=O)COC(=O)c2cc(C3CC3)nc3ccccc23)c(=O)n(Cc2ccccc2)c1=O
Cytochrome P450 3A4
  AC50: 15.8 µM (inconclusive)

## COc1ccccc1/C=C1\SC(NNC(=O)c2cccc(Br)c2)=NC1=O
[1]
  AC50: 2.09 µM (active)

## CCC(C)N(CC(=O)Nc1cccc(C)c1C)C(=O)CCl (configuration not stated)
BJ [5]
  EC50: 10.8 µM (active)
[6]
  CC50: 8.39 µM (active)
[7]
  EC50: 3.8 µM (active)
BJ [8]
  EC50: 5.48 µM (active)
[9]
  AC50: 57.3 µM (active)
BJ [10]
  EC50: 0.608 µM (active)
Protein RecA
  EC50: 8.81 µM (active)

## CCOC(=O)c1[nH]c(C)c(C(=O)OCc2ccccc2F)c1C
[1]
  AC50: 0.633 µM (active)

## COc1ccc(-c2cc(-c3cccnc3)c(C#N)c(N)n2)cc1
[2]
  EC50: 22 µM (active)
[3]
  EC50: 23 µM (active)
[4]
  EC50: 12.7 µM (active)

## CC(C)(/N=N/C(C)(C)C(=N)N)C(=N)N
Cytochrome P450 3A4
  AC50: 39.8 µM (inconclusive)

## COc1cc2cc(C(=O)N3CCN(Cc4ccc5c(c4)OCO5)CC3)[nH]c2cc1OC
[2]
  EC50: > 120 µM (not active)
[3]
  EC50: > 120 µM (not active)
[11]
  EC50: > 112 µM (not active)
[12]
  EC50: > 112 µM (not active)
[4]
  EC50: > 120 µM (not active)

## COC1=C[C@H]2[C@H]3Cc4ccc(OC)c(O)c4[C@@]2(CCN3C)CC1=O
Cytochrome P450 3A4
  AC50: 31.6 µM (inconclusive)

## COc1ccc(Oc2c(C)oc3cc(OC(=O)N4CCOCC4)ccc3c2=O)cc1
[2]
  EC50: > 120 µM (not active)
[3]
  EC50: 59.2 µM (active)
[4]
  EC50: > 120 µM (not active)

## Oc1cc(Cl)ccc1Cl
Cytochrome P450 3A4
  AC50: 31.6 µM (inconclusive)

## COC(=O)C(C(=O)OC)C1O[C@@]23COCCC2(C)C3c2ccccc21 (some centres not stated)
Cytochrome P450 3A4
  AC50: 3.16 µM (inconclusive)

## CCCCCCn1c(SCC(C)C)nc2c1c(=O)[nH]c(=O)n2C
[2]
  EC50: 15.4 µM (active)
[3]
  EC50: 18.8 µM (active)
[4]
  EC50: > 120 µM (not active)

## CC1=CC(C)(C)N(C(=O)CCl)c2cc(C)ccc21
BJ [5]
  EC50: > 150 µM (not active)
[7]
  EC50: 29.8 µM (active)
BJ [8]
  EC50: > 150 µM (not active)
BJ [10]
  EC50: 5.77 µM (active)

## COc1cc(-c2ccc3oc(-c4cccc(C)c4)c(C#CC4(O)CCCCC4)c3c2)cc(OC)c1OC
[1]
  AC50: 8.67 µM (active)

## CN(C)C(=O)N(CCCl)N=O
SN12K1
  GI50: > 100 µM (inactive)
P388/ADR
  GI50: > 100 µM (inactive)
P388
  GI50: > 100 µM (inactive)

## CCCCc1nccc2c(C)c3[nH]c4ccccc4c3cc12
SN12K1
  GI50: 2.14 µM (inactive)
P388/ADR
  GI50: 2 µM (inactive)
P388
  GI50: 1.77 µM (inactive)

## CN(C)CC1CC/C(=C\c2ccc(Cl)cc2)C1=O (configuration not stated)
SN12K1
  GI50: 2.21 µM (inactive)
P388/ADR
  GI50: 0.509 µM (active)
P388
  GI50: 0.31 µM (active)

From ChEMBL document CHEMBL1201862, “PubChem BioAssay data set” (2004)
